Legend:
Human M4 = target: T1, Human M4 (Homo sapiens, UniProt P08173); test: mAChR M4 cell-based functional assay (calcium flux, Fluo-4, M4/Gqi5/CHO-K1 cells); conditions: for remaining activity at 30 µM: CHO-K1, read-out: Human M4 Emin (%), % ACh maximum at 30 μM
T1 construct: expressed in transfected cells; host or cells: CHO-K1 (ATCC), stably co-expressing chimeric G protein Gqi5
T1 sequence (P08173 1-479): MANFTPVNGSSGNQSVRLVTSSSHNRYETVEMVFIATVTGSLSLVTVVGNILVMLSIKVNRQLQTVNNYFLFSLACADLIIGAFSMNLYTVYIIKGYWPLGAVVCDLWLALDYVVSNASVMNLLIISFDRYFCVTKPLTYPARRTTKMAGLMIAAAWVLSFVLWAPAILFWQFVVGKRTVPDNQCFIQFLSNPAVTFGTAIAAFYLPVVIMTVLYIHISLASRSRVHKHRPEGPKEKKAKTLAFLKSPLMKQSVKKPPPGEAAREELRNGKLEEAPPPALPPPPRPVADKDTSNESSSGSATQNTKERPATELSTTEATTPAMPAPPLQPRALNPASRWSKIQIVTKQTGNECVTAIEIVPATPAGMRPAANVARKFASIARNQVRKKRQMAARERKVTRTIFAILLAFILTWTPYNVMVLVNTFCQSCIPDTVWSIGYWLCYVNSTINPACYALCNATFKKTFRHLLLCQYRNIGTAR
Description: Human or rat M4 cDNA, along with the chimeric G protein Gqi5, were transfected into Chinese hamster ovary (CHO-K1) cells purchased from the American Type Culture Collection using Lipofectamine2000. M4/Gqi5/CHO cells were grown in Ham's F-12 medium containing 10% heat-inactivated fetal bovine serum (FBS), 20 mM HEPES, 500 μg/mL 418 sulfate, and 200 μg/mL Hygromycin B.
For high throughput measurement of agonist-evoked increases in intracellular calcium, CHO-K1 cells stably expressing muscarinic receptors were plated in growth medium lacking 418 and hygromycin at 15,000 cells/20 μL/well in Greiner 384-well black-walled, tissue culture (TC)-treated, clear-bottom plates (VWR). Cells were incubated overnight at 37° C. and 5% CO2. The next day, cells were washed using an ELX 405 (BioTek) with assay buffer; the final volume was then aspirated to 20 μL. Next, 20 μL of a 2.3 μM stock of Fluo-4/acetoxymethyl ester (Invitrogen, Carlsbad, CA), prepared as a 2.3 mM stock in DMSO and mixed in a 1:1 ratio with 10% (w/v) Pluronic F-127 and diluted in assay buffer, was added to the wells and the cell plates were incubated for 50 min at 37° C. and 5% CO2. Dye was removed by washing with the ELX 405 and the final volume was aspirated to 20 μL. Compound master plates were formatted in a 10 point concentration-response curve (CRC) format (1:3 dilutions) in 100% DMSO with a starting concentration of 10 or 1 mM using a BRAVO liquid handler (Agilent). Test compound CRCs were then transferred to daughter plates (240 nL) using the Echo acoustic plate reformatter (Labcyte, Sunnyvale, CA) and then diluted into assay buffer (40 μL) to a 2× stock using a Thermo Fisher Combi (Thermo Fisher Scientific, Waltham, MA).
Calcium flux was measured using the Functional Drug Screening System (FDSS) 6000 or 7000 (Hamamatsu Corporation, Tokyo, Japan) as an increase in the fluorescent static ratio. Compounds were applied to cells (20 μL, 2×) using the automated system of the FDSS at 2 seconds into the protocol and the data were collected at 1 Hz. At 143 s, 10 μL of an EC20 concentration of the muscarinic receptor agonist acetylcholine was added (5×), followed by the addition of 12 μL of an EC80 concentration of acetylcholine at the 268 s time point (5×). Agonist activity was analyzed as a concentration-dependent increase in calcium mobilization upon compound addition. Positive allosteric modulator activity was analyzed as a concentration-dependent increase in the EC20 acetylcholine response. Antagonist activity was analyzed as a concentration-dependent decrease in the ECK) acetylcholine response; for the purposes of the tables herein, an IC50 (inhibitory concentration 50) was calculated as a concentration-dependent decrease of the response elicited by an ECK) concentration of acetylcholine. Concentration-response curves were generated using a four-parameter logistical equation in XLFit curve fitting software (IDBS, Bridgewater, NJ) for Excel (Microsoft, Redmond, WA) or Prism (GraphPad Software, Inc., San Diego, CA) or the Dotmatics software platform (Dotmatics, Bishop's Stortford, UK).
Compounds were synthesized as described above. Activity (IC50 and Emin) was determined in the mAChR M4 cell-based functional assay as described above and the data are shown in Table 2.

[1] = system: catalepsy induced by the DA receptor antagonist haloperidol; test: Reversal of haloperidol-induced catalepsy by scopolamine in mice; format: in vivo
Excerpt: Furthermore, haloperidol-induced catalepsy, a model of parkinsonian motor disability, is reduced in M4 knockout mice as compared to wild-type controls. […] The reversal by scopolamine was uncommonly robust and more pronounced than we observe with agents targeting a number of other targets being evaluated for potential antiparkinsonian effects, including metabotropic glutamate (mGlu) receptors mGlu4 or mGlu5, A2A adenosine receptors, and NMDA receptors. […] Taken together with the extensive studies of M4 modulation of basal ganglia and motor function, these studies provide compelling evidence that M4 is the dominant mAChR subtype involved in the antiparkinsonian effects of non-selective mAChR antagonists and provide support for discovery and development of selective M4 antagonists for treatment of neurodegenerative disease such as PD, dystonia, tardive dyskinesia and other movement disorders.

| IC50 (Human M4) | remaining activity at 30 µM (Human M4) | SMILES | Reduction of haloperidol-induced catalepsy ([1]; M4 KO mice) | Reversal of haloperidol-induced catalepsy ([1]; WT mice) |
| --- | --- | --- | --- | --- |
| 1.4 nM | 3% | [2H]C([2H])(C1CCOCC1)N1C[C@H]2C[C@H](Nc3nnc(-c4cc(F)ccc4C)c4sccc34)C[C@H]2C1 [compound 19, 7-(5-fluoro-2-methylphenyl)-N-((3aR,5s,6aS)-2-((tetrahydro-2H-pyran-4-yl)methyl-d2)octahydrocyclopenta[c]pyrrol-5-yl)thieno[2,3-d]pyridazin-4-amine] |  |  |
| 5.64 nM | 3% | FC1(F)CCN(c2nnc(N[C@H]3C[C@@H]4CN(CC5CCOCC5)C[C@@H]4C3)c3ccsc23)CC1 [compound 20, 7-(4,4-difluoropiperidin-1-yl)-N-((3aR,5s,6aS)-2-((tetrahydro-2H-pyran-4-yl)methyl)octahydrocyclopenta[c]pyrrol-5-yl)thieno[2,3-d]pyridazin-4-amine] |  |  |
| 15.1 nM | 4% | C[C@H]1CCCN(c2nnc(N[C@H]3C[C@@H]4CN(CC5CCOCC5)C[C@@H]4C3)c3ccsc23)C1 [compound 21, 7-((S)-3-methylpiperidin-1-yl)-N-((3aR,5s,6aS)-2-((tetrahydro-2H-pyran-4-yl)methyl)octahydrocyclopenta[c]pyrrol-5-yl)thieno[2,3-d]pyridazin-4-amine] |  |  |
| 14.6 nM | 3% | FC1(F)CCN(c2nnc(N[C@H]3C[C@@H]4CN(CC5CCOCC5)C[C@@H]4C3)c3c2CCCC3)CC1 [compound 22, 4-(4,4-difluoropiperidin-1-yl)-N-((3aR,5s,6aS)-2-((tetrahydro-2H-pyran-4-yl)methyl)octahydrocyclopenta[c]pyrrol-5-yl)-5,6,7,8-tetrahydrophthalazin-1-amine] |  |  |
| 5.43 nM | 3% | Fc1ccc(F)c(-c2nnc(N[C@H]3C[C@@H]4CN(CC5CCOCC5)C[C@@H]4C3)c3c2CCCC3)c1 [compound 23, 4-(2,5-difluorophenyl)-N-((3aR,5s,6aS)-2-((tetrahydro-2H-pyran-4-yl)methyl)octahydrocyclopenta[c]pyrrol-5-yl)-5,6,7,8-tetrahydrophthalazin-1-amine] |  |  |
| 6.2 nM | 3% | Fc1ccccc1-c1nnc(N[C@H]2C[C@@H]3CN(CC4CCOCC4)C[C@@H]3C2)c2c1CCCC2 [compound 24, 4-(2-fluorophenyl)-N-((3aR,5s,6aS)-2-((tetrahydro-2H-pyran-4-yl)methyl)octahydrocyclopenta[c]pyrrol-5-yl)-5,6,7,8-tetrahydrophthalazin-1-amine] |  |  |
| 9.04 nM | 3% | Fc1cccc(-c2nnc(N[C@H]3C[C@@H]4CN(CC5CCOCC5)C[C@@H]4C3)c3c2CCCC3)c1 [compound 25, 4-(3-fluorophenyl)-N-((3aR,5s,6aS)-2-((tetrahydro-2H-pyran-4-yl)methyl)octahydrocyclopenta[c]pyrrol-5-yl)-5,6,7,8-tetrahydrophthalazin-1-amine] |  |  |
| 58.9 nM | 3% | Fc1ccc(-c2nnc(N[C@H]3C[C@@H]4CN(CC5CCOCC5)C[C@@H]4C3)c3c2CCCC3)cc1 [compound 26, 4-(4-fluorophenyl)-N-((3aR,5s,6aS)-2-((tetrahydro-2H-pyran-4-yl)methyl)octahydrocyclopenta[c]pyrrol-5-yl)-5,6,7,8-tetrahydrophthalazin-1-amine] |  |  |
| 12 nM | 3% | [2H]C([2H])(C1CCOCC1)N1C[C@H]2C[C@H](Nc3nnc(-c4cc(F)ccc4F)c4ccccc34)C[C@H]2C1 [compound 27, 4-(2,5-difluorophenyl)-N-((3aR,5s,6aS)-2-((tetrahydro-2H-pyran-4-yl)methyl-d2)octahydrocyclopenta[c]pyrrol-5-yl)phthalazin-1-amine] |  |  |
|  |  | CN1[C@@H]2C[C@@H](OC(=O)[C@H](CO)c3ccccc3)C[C@H]1[C@@H]1O[C@@H]12 [scopolamine] | ineffective in reducing catalepsy | completely reversed |
